{"source": "patent US6855346B2", "about": "“Pharmaceutical composition having prophylactic effects on lamivudine-related disease relapse and drug resistance and methods of using the same” (priority 2001, dated 2005)", "type_in_all_cases": "in vivo, human", "key": {"[1]": {"test": "Clinical study of YGK and lamivudine in chronic hepatitis B patients: adverse effects", "conditions": "after 16 weeks of treatment, of 42 patients; disappeared after 2 more weeks", "experimental": "(§1) A total of 135 patients who met the criteria were included in this study. Patients were randomized and divided into group A, B and C. Group A was the treatment group with 48 patients while group B with 42 patients and group C with 45 patients were positive control groups.\n(§2) (2) Treatment Method • Each treatment period lasted for 4 weeks.\n(§3) (1) Observe Items • (a) Hepatitis B biological markers: Serum HBV-DNA, HBeAg, Anti-Hbe, HbsAg, Anti-HBs were analyzed before treatment, at week 4, 8, 16 and 32 during treatment and at week 24 and 48 after treatment termination. • Serum HBV-DNA was measured by polymerase chain reaction (PCR) using 9600 DNA Amplification Machine (PE corp., USA) and reagents from E-li-kang Biotech. Corp., Zhejiang, Wenzhou, China. Serum HBeAg, anti-HBe, HBsAg, and Anti-HBs were determined by the Imx method using Automatic Quick Micro Immune Analytic Instrument and reagents from Abbott Laboratories, USA. • (b) Hepatic functions: ALT was monitored at week 4, 8, 16 and 32 during treatment and at week 24 and 48 after treatment termination. • (c) Adverse effects: Patients were constantly monitored by the medical staff for adverse effect throughout the treatment periods."}, "ALT": {"test_system": "ALT", "test": "Clinical study of YGK and lamivudine in chronic hepatitis B patients: hepatic function (ALT)", "experimental": "as §1, §2, §3\nData obtained at weeks 4, 8, 16, and 32 during treatment and at weeks 24 and 48 after treatment termination were analyzed by Chi-square (X^2) and t-test. […]"}, "[2]": {"test_system": "Chronic Hepatitis B (HBV)", "test": "Clinical study of YGK and lamivudine in chronic hepatitis B patients: serum biological markers (Example 6)", "experimental": "Patients were randomized and divided into group A, B and C. Group A was the treatment group with 48 patients while group B with 42 patients and group C with 45 patients were positive control groups.\nas §2, §3\nData obtained at weeks 4, 8, 16, and 32 during treatment and at weeks 24 and 48 after treatment termination were analyzed by Chi-square (X^2) and t-test. The statistical results obtained were used to evaluate the therapeutic effects."}, "[3]": {"conditions": "number of patients after 4 weeks of treatment"}, "[4]": {"conditions": "number of patients after 8 weeks of treatment"}, "[5]": {"conditions": "number of patients after 16 weeks of treatment"}, "[6]": {"conditions": "number of patients after 32 weeks of treatment"}, "[7]": {"conditions": "number of patients at week 24 after treatment termination"}, "[8]": {"conditions": "number of patients at week 48 after treatment termination"}}, "note": "Marks after values point to notes of the source that are not given here."}
{"smiles": "Nc1ccn([C@@H]2CS[C@H](CO)O2)c(=O)n1", "note": "[lamivudine, (2R, cis)-4-amino-1-(2-hydroxmethyl-1,3-oxathiolan-5-yl)-(1H)-pyrimidin-2-one]", "values": [{"measurement": "patients showing adverse effects (anorexia, abdominal discomfort, fluctuating ALT levels)", "setting": "[1]", "value": 8}, {"measurement": "patients with normal ALT", "setting": "ALT; after 4 weeks of treatment", "value": 66.6, "unit": "%"}, {"measurement": "patients with normal ALT", "setting": "ALT; [3]", "value": "28**"}, {"measurement": "HBeAg seroconversion", "setting": "[2]; after 16 weeks of treatment", "value": 4.8, "unit": "%"}, {"measurement": "patients with negative HBV DNA", "setting": "[2]; after 16 weeks of treatment", "value": 61.9, "unit": "%"}, {"measurement": "HBV DNA negative conversion", "setting": "[2]; after 32 weeks of treatment", "value": 90.5, "unit": "%"}, {"measurement": "HBeAg seroconversion", "setting": "[2]; after 32 weeks of treatment", "value": 9.5, "unit": "%"}, {"measurement": "rate for patients turning negative in HBeAg", "setting": "[2]; after lamivudine treatment", "value": 9.5, "unit": "%"}, {"measurement": "Seroconversion of HBeAg", "setting": "[2]; [3]", "value": "0**"}, {"measurement": "Seroconversion of HBsAg", "setting": "[2]; [3]", "value": 0}, {"measurement": "Seroconversion of anti-Hbe", "setting": "[2]; [3]", "value": "0**"}, {"measurement": "Seroconversion of Anti-HBs", "setting": "[2]; [4]", "value": 0}, {"measurement": "Seroconversion of HBeAg", "setting": "[2]; [4]", "value": "0**"}, {"measurement": "Seroconversion of HBsAg", "setting": "[2]; [4]", "value": "0**"}, {"measurement": "Seroconversion of anti-HBe", "setting": "[2]; [4]", "value": "0**"}, {"measurement": "Seroconversion of Anti-HBs", "setting": "[2]; [5]", "value": 0}, {"measurement": "Seroconversion of HBeAg", "setting": "[2]; [5]", "value": "2**"}, {"measurement": "Seroconversion of HBsAg", "setting": "[2]; [5]", "value": "0**"}, {"measurement": "Seroconversion of anti-HBe", "setting": "[2]; [5]", "value": "0**"}, {"measurement": "Seroconversion of Anti-HBs", "setting": "[2]; [6]", "value": 1}, {"measurement": "Seroconversion of HBeAg", "setting": "[2]; [6]", "value": "4**"}, {"measurement": "Seroconversion of HBsAg", "setting": "[2]; [6]", "value": "1**"}, {"measurement": "Seroconversion of anti-HBe", "setting": "[2]; [6]", "value": "4**"}, {"measurement": "Seroconversion of Anti-HBs 24W", "setting": "[2]; [7]", "value": "1**"}, {"measurement": "Seroconversion of HBeAg 24W", "setting": "[2]; [7]", "value": "4**"}, {"measurement": "Seroconversion of HBsAg 24W", "setting": "[2]; [7]", "value": "1**"}, {"measurement": "Seroconversion of anti-HBe 24W", "setting": "[2]; [7]", "value": "4**"}, {"measurement": "Seroconversion of Anti-HBs 48W", "setting": "[2]; [8]", "value": "0**"}, {"measurement": "Seroconversion of HBeAg 48W", "setting": "[2]; [8]", "value": "0**"}, {"measurement": "Seroconversion of HBsAg 48W", "setting": "[2]; [8]", "value": "0**"}, {"measurement": "Seroconversion of anti-HBe 48W", "setting": "[2]; [8]", "value": "0**"}, {"measurement": "patients relapsed to positive for HBV DNA", "setting": "[2]; of the 38 patients HBV DNA negative during treatment, week 48 after treatment termination", "value": 12}, {"measurement": "overall HBV DNA seroconversion rate", "setting": "[2]; week 48 after treatment termination", "value": 61.9, "unit": "%"}]}
